Values joined by “and” are separate entries in the source; they are usually repeats but may differ in a detail not shown here. Equal values may be shown once.
Details: Liquid, Transpiration method

COCCOCCOCCOc1ccccc1Br [1-bromo-2-(2-(2-(2-methoxyethoxy)ethoxy)ethoxy)benzene]
Details	vapor or sublimation pressure [kPa]
333.2 K	6.1e-05
337.3 K	8.8e-05
339.3 K	0.000111
341.3 K	0.000132
343.4 K	0.000158
345.5 K	0.000188
347.5 K	0.000218
349.7 K	0.000272
351.7 K	0.000329
353.6 K	0.000382
355.7 K	0.000446
357.8 K	0.000555
359.8 K	0.000649
360.6 K	0.000704
362 K	0.000796
363 K	0.000826
365 K	0.000993
367.9 K	0.001244
369.9 K	0.001446

COCCOCCOc1ccccc1Br [1-bromo-2-(2-(2-methoxyethoxy)ethoxy)benzene]
Details	vapor or sublimation pressure
310.4 K	9e-05 kPa
313.2 K	0.00012 kPa
317.4 K	0.00016 kPa
318.6 K	0.00019 kPa
320.3 K	0.00021 kPa
322.6 K	0.00026 kPa
324.3 K	0.0003 kPa
325.4 K	0.00036 kPa
327.6 K	0.00043 kPa
327.7 K	0.00043 kPa
328.3 K	0.00047 kPa and 0.00045 kPa
329 K	0.00045 kPa
332.4 K	0.00063 kPa
332.5 K	0.00062 kPa
332.7 K	0.00063 kPa
334.5 K	0.00076 kPa
335.4 K	0.00081 kPa
337.9 K	0.00096 kPa
339.1 K	0.00113 kPa
342 K	0.00135 kPa
343.5 K	0.00153 kPa
345 K	0.00167 kPa
346.5 K	0.00205 kPa
347.6 K	0.00219 kPa
348 K	0.0022 kPa
349.5 K	0.00252 kPa
350.1 K	0.00253 kPa
350.6 K	0.0028 kPa
353 K	0.00325 kPa
355.1 K	0.00383 kPa
356 K	0.0041 kPa
359.2 K	0.0052 kPa
360.3 K	0.00566 kPa
361.1 K	0.00611 kPa
363.3 K	0.007 kPa
365.2 K	0.00835 kPa
368.4 K	0.01027 kPa and 0.01025 kPa
370.8 K	0.01177 kPa
373.5 K	0.01407 kPa

COCCOc1ccccc1Br [1-bromo-2-(2-methoxyethoxy)benzene]
Details	vapor or sublimation pressure
302.4 K	0.0011 kPa
307.4 K	0.00174 kPa
312.4 K	0.00268 kPa
315 K	0.00321 kPa
317.5 K	0.00391 kPa
319.5 K	0.00453 kPa and 0.00475 kPa
322.6 K	0.0062 kPa
324.6 K	0.00691 kPa
327.6 K	0.00867 kPa
332.7 K	0.01255 kPa
337.8 K	0.01854 kPa
343 K	0.02628 kPa
348.1 K	0.03518 kPa
353.2 K	0.04763 kPa
356.3 K	0.05583 kPa
358.2 K	0.06719 kPa
360.7 K	0.07401 kPa
361.8 K	0.07914 kPa
363.3 K	0.08516 kPa
366.8 K	0.1095 kPa
368.4 K	0.1199 kPa

From the NIST ThermoML archive (doi:10.1016/j.fluid.2006.09.001)
